Measurements from patent publication US9511059B2, “Antiviral compounds” (priority 2013, dated 2016).

How the values were obtained:
Assay in all cases: microbe, parasite or virus in culture
[1] = system: Pseudotyped HCV GT1a particles (HCVpp); assay type: cell-based, Hepatitis C virus GT1a H77 strain; conditions: Hepatitis C virus, 72 h, read-out: HCVpp GT-1a (EC50, μM)
[2] = system: Pseudotyped HCV GT1b particles (HCVpp); assay type: cell-based, Hepatitis C virus GT1b Con1 strain; conditions: Hepatitis C virus, 72 h, read-out: HCVpp GT-1b (EC50, μM)
[3] = system: pseudotyped VSV G particles (VSVpp); assay type: cell-based; conditions: Vesicular stomatitis virus, 72 h, read-out: VSVpp (EC50, μM)

| Structure (SMILES) | EC50 [1] [µM] | EC50 [2] [µM] | EC50 [3] [µM] |
| --- | --- | --- | --- |
| Nc1nc(Nc2ccc(Nc3ccccc3)c(Cl)c2)n[nH]1 [Compound 2, N*3*-(3-Chloro-4-phenylamino-phenyl)-1H-[1,2,4]triazole-3,5-diamine] | 2.44 | 0.393 | 86 |
| N#Cc1ccc(S(=O)(=O)c2c(Cl)cc(Nc3n[nH]c(N)n3)cc2Cl)cc1 [Compound 14, 4-[4-(5-Amino-1H-[1,2,4]triazol-3-ylamino)-2,6-dichloro-benzenesulfonyl]-benzonitrile] | 0.366 | – | 10 |
| N#Cc1ccc([S+]([O-])c2c(Cl)cc(Nc3n[nH]c(N)n3)cc2Cl)cc1 (stereo not shown) [Compound 13, 4-[4-(5-Amino-1H-[1,2,4]triazol-3-ylamino)-2,6-dichloro-benzenesulfinyl]-benzonitrile] | 0.674 | – | 10 |
| Nc1nc(Nc2ccc(S(=O)(=O)c3ccccc3)c(Cl)c2)n[nH]1 [Compound 23, N3-(3-chloro-4-(phenylsulfonyl)phenyl)-1H-1,2,4-triazole-3,5-diamine] | 4.62 | 0.517 | 40.1 |
| COc1ccc(S(=O)(=O)c2c(Cl)cc(Nc3n[nH]c(N)n3)cc2Cl)cc1 [Compound 18, N*3*-[3,5-Dichloro-4-(4-methoxy-benzenesulfonyl)-phenyl]-1H-[1,2,4]triazole-3,5-diamine] | 0.126 | – | 0.1 |
| Nc1nc(Nc2cc(Cl)c(Sc3ccccc3)c(Cl)c2)n[nH]1 [Compound 4, N*3*-(3,5-Dichloro-4-phenylsulfanyl-phenyl)-1H-[1,2,4]triazole-3,5-diamine] | 0.076 | – | 3.3 |
| COc1ccc(Sc2c(Cl)cc(Nc3n[nH]c(N)n3)cc2Cl)cc1 [Compound 16, N*3*-[3,5-Dichloro-4-(4-methoxy-phenylsulfanyl)-phenyl]-1H-[1,2,4]triazole-3,5-diamine] | 1.02 | – | 40.2 |
| CN(c1ccc(Sc2ccccc2)c(Cl)c1)c1n[nH]c(N)n1 [Compound 24, N3-(3-chloro-4-(phenylthio)phenyl)-N3-methyl-1H-1,2,4-triazole-3,5-diamine] | – | 42.1 | 100 |
| Nc1nc(Nc2cc(Cl)c(S(=O)(=O)c3ccccc3)c(Cl)c2)n[nH]1 [Compound 6, N*3*-(4-Benzenesulfonyl-3,5-dichloro-phenyl)-1H-[1,2,4]triazole-3,5-diamine] | 0.139 | – | 34 |
| COC(=O)c1ccc(Sc2c(Cl)cc(Nc3n[nH]c(N)n3)cc2C(F)(F)F)cc1 [Compound 15, 4-[4-(5-Amino-1H-[1,2,4]triazol-3-ylamino)-2-chloro-6-trifluoromethyl-phenylsulfanyl]-benzoic acid methyl ester] | 0.133 | – | 49.8 |
| CS(=O)(=O)c1ccc(Oc2c(Cl)cc(Nc3n[nH]c(N)n3)cc2Cl)cc1 [Compound 19, N*3*-[3,5-Dichloro-4-(4-methanesulfonyl-phenoxy)-phenyl]-1H-[1,2,4]triazole-3,5-diamine] | 0.019 | 0.008 | 20.2 |
| Nc1nc(Nc2cc(Cl)cc(OCc3ccccc3)c2)n[nH]1 [Compound 21, N*5*-(3-Benzyloxy-5-chloro-phenyl)-1H-[1,2,4]triazole-3,5-diamine] | 1.67 | – | 39.2 |
| Nc1n[nH]c(Nc2cc(F)c(Sc3ccccc3)c(C(F)(F)F)c2)n1 [Compound 1, N^5-(3-Fluoro-4-phenylsulfanyl-5-trifluoromethylphenyl)-1H-[1,2,4]-triazole-3,5-diamine] | 0.31 | – | 13.2 |
| Nc1nc(Nc2cc(Cl)c([S+]([O-])c3ccc(C(F)(F)F)cc3)c(Cl)c2)n[nH]1 (stereo not shown) [Compound 8, N3-(3,5-dichloro-4-(4-(trifluoromethyl)phenylsulfinyl)phenyl)-1H-1,2,4-triazole-3,5-diamine] | 0.114 | 0.079 | 10 |
| Nc1nc(Nc2cc(Cl)c(Sc3ccc(C(F)(F)F)cc3)c(Cl)c2)n[nH]1 [Compound 7, N3-(3,5-dichloro-4-(4-(trifluoromethyl)phenylthio)phenyl)-1H-1,2,4-triazole-3,5-diamine] | – | 0.009 | 100 |
| COc1ccc(Sc2c(Cl)cc(Nc3n[nH]c(N)n3)cc2C(F)(F)F)cc1 [Compound 17, N*3*-[3-Chloro-4-(4-methoxy-phenylsulfanyl)-5-trifluoromethyl-phenyl]-1H-[1,2,4]triazole-3,5-diamine] | 1.04 | – | 34.9 |
| Nc1nc(Nc2cc(Cl)c(Oc3ccccn3)c(Cl)c2)n[nH]1 [Compound 26, N*3*-[3,5-Dichloro-4-(pyridin-2-yloxy)-phenyl]-1H-[1,2,4]triazole-3,5-diamine] | 1.88 | – | 43.5 |
| Nc1nc(Nc2cc(Cl)c(Sc3cccc(C(F)(F)F)c3)c(Cl)c2)n[nH]1 [Compound 9, N3-(3,5-dichloro-4-(3-(trifluoromethyl)phenylthio)phenyl)-1H-1,2,4-triazole-3,5-diamine] | 0.15 | – | 3 |
| Nc1nc(Nc2cc(Cl)c([S+]([O-])c3ccccc3)c(Cl)c2)n[nH]1 (stereo not shown) [Compound 5, N*3*-(4-Benzenesulfinyl-3,5-dichloro-phenyl)-1H-[1,2,4]triazole-3,5-diamine] | 0.293 | – | 25.3 |
| Nc1nc(Nc2cc(Cl)c(Sc3ccccc3C(F)(F)F)c(Cl)c2)n[nH]1 [Compound 10, N*3*-[3,5-Dichloro-4-(2-trifluoromethyl-phenylsulfanyl)-phenyl]-1H-[1,2,4]triazole-3,5-diamine] | 0.263 | – | 7.7 |
| Nc1nc(Nc2cc(Cl)c([S+]([O-])c3cccc(C(F)(F)F)c3)c(Cl)c2)n[nH]1 (stereo not shown) [Compound 11, N^3-[3,5-Dichloro-4-(3-trifluoromethyl-benzenesulfinyl)-phenyl]-1H-[1,2,4]triazole-3,5-diamine] | 0.61 | – | 10 |
| Nc1nc(Nc2cc(Cl)cc(Oc3ccccc3)c2)n[nH]1 [Compound 25, N*3*-(3-Chloro-5-phenoxy-phenyl)-1H-[1,2,4]triazole-3,5-diamine] | – | 1.9 | 100 |
| Nc1nc(Nc2ccc(Oc3ccccc3)c(Cl)c2)n[nH]1 [Compound 3, N*3*-(3-Chloro-4-phenoxy-phenyl)-1H-[1,2,4]triazole-3,5-diamine] | 2.77 | 0.329 | 35.5 |
| Nc1nc(Nc2ccc(Sc3ccccc3)c(Cl)c2)n[nH]1 [Compound 22, N3-(3-chloro-4-(phenylthio)phenyl)-1H-1,2,4-triazole-3,5-diamine] | 1.65 | 0.229 | 14.3 |
| N#Cc1ccc(Sc2c(Cl)cc(Nc3n[nH]c(N)n3)cc2Cl)cc1 [Compound 12, 4-[4-(5-Amino-1H-[1,2,4]triazol-3-ylamino)-2,6-dichloro-phenylsulfanyl]-benzonitrile] | 0.077 | – | 3.4 |
| CS(=O)(=O)c1ccc(Oc2c(Cl)cc(Nc3n[nH]c(N)n3)cc2C(F)(F)F)cc1 [Compound 20, N*3*-[3-Chloro-4-(4-methanesulfonyl-phenoxy)-5-trifluoromethyl-phenyl]-1H-[1,2,4]triazole-3,5-diamine] | 0.232 | – | 10 |
